Our source for the IC50 values is patent publication US20180250303A1, “TGF BETA RECEPTOR ANTAGONISTS” (BRISTOL-MYERS SQUIBB COMPANY, priority 2015, published 2018).

Structures are written as SMILES.

For orientation: IC50 means the concentration needed to halve the response being measured. Low values mean greater potency, high ones weaker potency.

In one assay the target is T1, HIS-TGFβR1 T204D (Homo sapiens, UniProt P36897, T204D).
T1 sequence (P36897 34-503 T204D): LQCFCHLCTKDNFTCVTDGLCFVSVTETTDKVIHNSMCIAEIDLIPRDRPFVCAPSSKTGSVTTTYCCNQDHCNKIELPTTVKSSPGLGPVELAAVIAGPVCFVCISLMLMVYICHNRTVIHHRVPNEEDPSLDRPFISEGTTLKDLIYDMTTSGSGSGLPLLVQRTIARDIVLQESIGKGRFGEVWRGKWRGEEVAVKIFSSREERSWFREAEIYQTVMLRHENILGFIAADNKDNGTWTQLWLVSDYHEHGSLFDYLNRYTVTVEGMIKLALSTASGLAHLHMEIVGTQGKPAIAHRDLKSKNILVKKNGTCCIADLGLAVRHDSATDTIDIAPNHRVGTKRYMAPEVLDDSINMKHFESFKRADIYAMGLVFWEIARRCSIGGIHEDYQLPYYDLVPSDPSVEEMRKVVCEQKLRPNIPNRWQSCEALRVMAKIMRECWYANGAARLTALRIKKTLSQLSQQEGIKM
Description: HTRF probe displacement assay, TGFβR1 HIS T204D. It counts as binding. Particulars: 1 nM HIS-TGFβR1 T204D, labeled probe at Kd, 1 hour at room temperature. The protocol:
(§1) Compounds were dissolved at 10 mM in dimethylsulfoxide (DMSO) and evaluated at eleven concentrations. IC50 values were derived by non-linear regression analysis.

The target in a further assay is HIS-TGFβR2 WT (Homo sapiens, UniProt P37173). Description: HTRF probe displacement assay, TGFβR2 HIS WT. It is filed as binding. Particulars: 1 nM HIS-TGFβR2 WT, labeled probe at Kd, 1 hour at room temperature. The protocol: as §1
Sequence of HIS-TGFβR2 WT (P37173 23-567): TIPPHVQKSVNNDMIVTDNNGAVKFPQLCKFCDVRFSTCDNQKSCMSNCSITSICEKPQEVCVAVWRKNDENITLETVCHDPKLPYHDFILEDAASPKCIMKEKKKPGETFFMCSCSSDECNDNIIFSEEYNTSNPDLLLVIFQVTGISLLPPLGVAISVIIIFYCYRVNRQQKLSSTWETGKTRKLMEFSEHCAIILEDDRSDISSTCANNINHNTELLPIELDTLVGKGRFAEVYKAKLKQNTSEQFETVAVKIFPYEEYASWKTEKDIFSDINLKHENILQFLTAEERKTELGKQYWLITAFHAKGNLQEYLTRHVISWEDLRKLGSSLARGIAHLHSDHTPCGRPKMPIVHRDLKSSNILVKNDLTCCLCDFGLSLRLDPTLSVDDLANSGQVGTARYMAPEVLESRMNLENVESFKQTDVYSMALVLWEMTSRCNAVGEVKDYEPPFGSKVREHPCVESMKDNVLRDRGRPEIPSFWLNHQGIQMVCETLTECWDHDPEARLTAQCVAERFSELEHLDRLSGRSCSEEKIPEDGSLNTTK
On the technique in general: TR-FRET usually uses a lanthanide donor and a delayed reading to cut background.

With `CC(=O)Nc1cc(Nc2nc(-c3cccc(C(F)(F)F)n3)nc3[nH]c(C)nc23)ccn1` [Example 14, N-(4-((8-methyl-2-(6-(trifluoromethyl)pyridin-2-yl)-9H-Purin-6-yl)amino)pyridin-2-yl)acetamide], the IC50 at HIS-TGFβR1 T204D was 1.6 nM; on HIS-TGFβR2 WT, greater than 15000 nM.
`CC(=O)Nc1cc(Nc2nc(-c3cccc(C(F)(F)F)n3)nc3[nH]cnc23)ccn1` [Example 8, N-(4-((2-(6-(trifluoromethyl)pyridin-2-yl)-9H-Purin-6-yl)amino)pyridin-2-yl)acetamide] yielded an IC50 at HIS-TGFβR2 WT of 1300 nM.
Take `COCCC(=O)Nc1cc(Nc2nc(-c3cccc(C(F)(F)F)n3)nc3[nH]cnc23)ccn1` [Example 22, 3-methoxy-N-(4-((2-(6-(trifluoromethyl)pyridin-2-yl)-9H-purin-6-yl)amino)pyridin-2-yl)propanamide]: the IC50 at HIS-TGFβR1 T204D is 1.1 nM; on HIS-TGFβR2 WT, greater than 15000 nM.
Regarding `Fc1cnccc1Nc1nc(-c2cccc(C(F)F)n2)nc2[nH]cnc12` [Example 2, 2-(6-(difluoromethyl)pyridin-2-yl)-N-(3-fluoropyridin-4-yl)-9H-Purin-6-amine], the IC50 on HIS-TGFβR1 T204D stood at 0.41 nM; on HIS-TGFβR2 WT, 3100 nM.
For `COC(=O)Nc1cc(Nc2nc(-c3cccc(C(F)(F)F)n3)nc3[nH]cnc23)ccn1` [Example 19, Methyl (4-((2-(6-(trifluoromethyl)pyridin-2-yl)-9H-purin-6-yl)amino)pyridin-2-yl)carbamate], the IC50 is 2 nM at HIS-TGFβR1 T204D and greater than 15000 nM on HIS-TGFβR2 WT.
For the compound `O=C(CCC(F)(F)F)Nc1cc(Nc2nc(-c3cccc(C(F)(F)F)n3)nc3[nH]cnc23)ccn1` [Example 23, 4,4,4-trifluoro-N-(4-((2-(6-(trifluoromethyl)pyridin-2-yl)-9H-purin-6-yl)amino)pyridin-2-yl)butanamide], the IC50 on HIS-TGFβR1 T204D was 0.48 nM; at HIS-TGFβR2 WT, greater than 15000 nM.
In the same order, the values of `COCC(=O)Nc1cc(Nc2nc(-c3cccc(C(F)(F)F)n3)nc3[nH]cnc23)ccn1` [Example 21, 2-methoxy-N-(4-((2-(6-(trifluoromethyl)pyridin-2-yl)-9H-purin-6-yl)amino)pyridin-2-yl)acetamide] are 0.45 nM and greater than 15000 nM.
With `CC(=O)Nc1cc(Nc2nc(-c3cccc(C(F)F)n3)nc3[nH]cnc23)ccn1` [Example 7, N-(4-((2-(6-(difluoromethyl)pyridin-2-yl)-9H-Purin-6-yl)amino)pyridin-2-yl)acetamide], the IC50 turned out to be 0.72 nM at HIS-TGFβR1 T204D and 520 nM on HIS-TGFβR2 WT.
As for `CC(=O)Nc1cc(Nc2nc(-c3cccc(C(F)(F)F)n3)nc3[nH]c(C4CC4)nc23)ccn1` [Example 17, N-(4-((8-cyclopropyl-2-(6-(trifluoromethyl)pyridin-2-yl)-9H-Purin-6-yl)amino)pyridin-2-yl)acetamide], the results for the IC50 at HIS-TGFβR1 T204D and on HIS-TGFβR2 WT were 1.6 nM and greater than 15000 nM, respectively.
For `O=C(Nc1cc(Nc2nc(-c3cccc(C(F)(F)F)n3)nc3[nH]cnc23)ccn1)C1CC1` [Example 20, N-(4-((2-(6-(trifluoromethyl)pyridin-2-yl)-9H-purin-6-yl)amino)pyridin-2-yl)cyclopropanecarboxamide], the IC50 was determined as 0.56 nM on HIS-TGFβR1 T204D and 470 nM at HIS-TGFβR2 WT.
`CC(=O)Nc1nccc(Nc2nc(-c3cccc(C(F)(F)F)n3)nc3[nH]cnc23)c1F` [Example 12, N-(3-fluoro-4-((2-(6-(trifluoromethyl)pyridin-2-yl)-9H-Purin-6-yl)amino)pyridin-2-yl)acetamide]: the IC50 was 8.9 nM on HIS-TGFβR1 T204D and greater than 15000 nM at HIS-TGFβR2 WT.
Taken in the same sequence, the figures for `CC(=O)Nc1cc(Nc2nc(-c3cccc(C)n3)nc3[nH]cnc23)ccn1` [Example 6, N-(4-((2-(6-methylpyridin-2-yl)-9H-Purin-6-yl)amino)pyridin-2-yl)acetamide] were 0.36 nM and 440 nM.
With `CC(=O)Nc1cc(Nc2nc(-c3cccc(C(F)(F)F)n3)nc3[nH]c(C)nc23)c(F)cn1` [Example 15, N-(5-fluoro-4-((8-methyl-2-(6-(trifluoromethyl)pyridin-2-yl)-9H-Purin-6-yl)amino)pyridin-2-yl)acetamide], the IC50 at HIS-TGFβR1 T204D is 51 nM; at HIS-TGFβR2 WT, greater than 15000 nM.
Taken in the same sequence, the figures for `Cc1nc(-c2nc(Nc3ccncc3F)c3nc[nH]c3n2)ccc1F` [Example 5, 2-(5-fluoro-6-methylpyridin-2-yl)-N-(3-fluoropyridin-4-yl)-9H-Purin-6-amine] were 0.36 nM and 2800 nM.
`Fc1cnccc1Nc1nc(-c2cccc(C(F)(F)F)n2)nc2[nH]cnc12` [Example 3, N-(3-fluoropyridin-4-yl)-2-(6-(trifluoromethyl)pyridin-2-yl)-9H-Purin-6-amine]: the figures for the IC50 at HIS-TGFβR1 T204D and on HIS-TGFβR2 WT were 1.1 nM and greater than 15000 nM, respectively.
In the case of `CC(=O)Nc1cc(Nc2nc(-c3ccccn3)nc3[nH]cnc23)ccn1` [Example 9, N-(4-((2-(pyridin-2-yl)-9H-Purin-6-yl)amino)pyridin-2-yl)acetamide], the IC50 stood at 0.9 nM on HIS-TGFβR1 T204D and 140 nM on HIS-TGFβR2 WT.
Take `CC(=O)Nc1cc(Nc2nc(-c3ccc(F)c(C)n3)nc3[nH]cnc23)ccn1` [Example 24, N-(4-((2-(5-fluoro-6-methylpyridin-2-yl)-9H-purin-6-yl)amino)pyridin-2-yl)acetamide]: the IC50 was 0.34 nM at HIS-TGFβR1 T204D and 290 nM on HIS-TGFβR2 WT.
`Cc1nc2c(Nc3ccncc3F)nc(-c3cccc(C(F)(F)F)n3)nc2[nH]1` [Example 16, N-(3-fluoropyridin-4-yl)-8-methyl-2-(6-(trifluoromethyl)pyridin-2-yl)-9H-Purin-6-amine]: the results for the IC50 at HIS-TGFβR1 T204D and on HIS-TGFβR2 WT were 5.3 nM and greater than 15000 nM, respectively.
